Columns and labels:
[1] = mn = molality of the nth substance listed, in mol/kg; conditions: 101 kPa, Liquid, Pycnometric method
[2] = refractive index (Na D-line) (dimensionless); mn = molality of the nth substance listed, in mol/kg; conditions: 101 kPa, Liquid, Standard Abbe refractometry

Cc1ccc(C(=O)N(O)c2ccccc2)cc1[N+](=O)[O-] [N-hydroxy-4-methyl-3-nitro-N-phenylbenzamide] + CN(C)C=O
Conditions	mass density, 298.15 K [kg/m3]	mass density, 303.15 K [kg/m3]	mass density, 308.15 K [kg/m3]	mass density, 313.15 K [kg/m3]	refractive index, 298.15 K	refractive index, 303.15 K	refractive index, 308.15 K	refractive index, 313.15 K
[1], m1 = 0.0184	947.8	942.4	938.4	933.1	–	–	–	–
[1], m1 = 0.0368	950.2	944.9	941	935.8	–	–	–	–
[1], m1 = 0.0551	952.6	947.4	943.5	938.4	–	–	–	–
[1], m1 = 0.0735	954.8	949.7	945.9	940.9	–	–	–	–
[1], m1 = 0.0919	957	952	948.2	943.3	–	–	–	–
[1], m1 = 0.1103	959.1	954.2	950.4	945.7	–	–	–	–
[1], m1 = 0.1286	961.1	956.3	952.6	947.9	–	–	–	–
[1], m1 = 0.147	963.1	958.4	954.7	950.1	–	–	–	–
[1], m1 = 0.1654	965	960.4	956.7	952.2	–	–	–	–
[1], m1 = 0.1838	966.9	962.3	958.7	954.3	–	–	–	–
[2], m1 = 0.0184	–	–	–	–	1.4391	1.435	1.432	1.4299
[2], m1 = 0.0368	–	–	–	–	1.4406	1.437	1.4343	1.432
[2], m1 = 0.0551	–	–	–	–	1.442	1.439	1.436	1.434
[2], m1 = 0.0735	–	–	–	–	1.444	1.441	1.438	1.4354
[2], m1 = 0.0919	–	–	–	–	1.447	1.4441	1.44	1.437
[2], m1 = 0.1103	–	–	–	–	1.4483	1.4455	1.442	1.439
[2], m1 = 0.1286	–	–	–	–	1.4496	1.4466	1.443	1.441
[2], m1 = 0.147	–	–	–	–	1.452	1.448	1.446	1.4429
[2], m1 = 0.1654	–	–	–	–	1.4535	1.45	1.448	1.444
[2], m1 = 0.1838	–	–	–	–	1.455	1.452	1.4494	1.445

O=C(c1ccc([N+](=O)[O-])cc1)N(O)c1ccccc1 [N-hydroxy-4-nitro-N-phenylbenzamide] + CN(C)C=O
Conditions	mass density, 298.15 K [kg/m3]	mass density, 303.15 K [kg/m3]	mass density, 308.15 K [kg/m3]	mass density, 313.15 K [kg/m3]	refractive index, 298.15 K	refractive index, 303.15 K	refractive index, 308.15 K	refractive index, 313.15 K
[1], m1 = 0.0234	947.5	942.1	938.1	932.8	–	–	–	–
[1], m1 = 0.0469	949.7	944.4	940.5	935.3	–	–	–	–
[1], m1 = 0.0703	951.9	946.7	942.8	937.7	–	–	–	–
[1], m1 = 0.0938	954	948.9	945.1	940	–	–	–	–
[1], m1 = 0.1172	956.1	951.1	947.3	942.3	–	–	–	–
[1], m1 = 0.1407	958.2	953.2	949.5	944.5	–	–	–	–
[1], m1 = 0.1641	960.2	955.3	951.6	946.7	–	–	–	–
[1], m1 = 0.1876	962.2	957.4	953.7	948.8	–	–	–	–
[1], m1 = 0.211	964.2	959.4	955.8	950.8	–	–	–	–
[1], m1 = 0.2345	966.1	961.4	957.8	952.9	–	–	–	–
[2], m1 = 0.0234	–	–	–	–	1.428	1.4264	1.4242	1.4223
[2], m1 = 0.0469	–	–	–	–	1.4289	1.4274	1.4254	1.4235
[2], m1 = 0.0703	–	–	–	–	1.4294	1.4279	1.4259	1.4244
[2], m1 = 0.0938	–	–	–	–	1.4299	1.4285	1.4266	1.4249
[2], m1 = 0.1172	–	–	–	–	1.43	1.429	1.4271	1.4258
[2], m1 = 0.1407	–	–	–	–	1.4305	1.4295	1.4276	1.4266
[2], m1 = 0.1641	–	–	–	–	1.4315	1.4302	1.4286	1.4271
[2], m1 = 0.1876	–	–	–	–	1.4325	1.4311	1.4292	1.4275
[2], m1 = 0.211	–	–	–	–	1.4329	1.4319	1.4301	1.4284
[2], m1 = 0.2345	–	–	–	–	1.433	1.4322	1.4304	1.4291

O=C(c1ccccc1)N(O)c1ccccc1 [N-phenylbenzohydroxamic acid] + CN(C)C=O
Conditions	mass density, 298.15 K [kg/m3]	mass density, 303.15 K [kg/m3]	mass density, 308.15 K [kg/m3]	mass density, 313.15 K [kg/m3]	refractive index, 298.15 K	refractive index, 303.15 K	refractive index, 308.15 K	refractive index, 313.15 K
[1], m1 = 0.0234	947.5	942.1	938.1	932.9	–	–	–	–
[1], m1 = 0.0469	949.7	944.4	940.5	935.4	–	–	–	–
[1], m1 = 0.0703	951.8	946.6	942.8	937.8	–	–	–	–
[1], m1 = 0.0938	953.9	948.8	945.1	940.1	–	–	–	–
[1], m1 = 0.1172	955.9	950.9	947.3	942.4	–	–	–	–
[1], m1 = 0.1407	957.9	953	949.5	944.5	–	–	–	–
[1], m1 = 0.1641	959.9	954.9	951.5	946.6	–	–	–	–
[1], m1 = 0.1876	961.8	956.9	953.6	948.6	–	–	–	–
[1], m1 = 0.211	963.7	958.8	955.6	950.6	–	–	–	–
[1], m1 = 0.2345	965.4	960.7	957.5	952.5	–	–	–	–
[2], m1 = 0.0234	–	–	–	–	1.4275	1.426	1.4238	1.422
[2], m1 = 0.0469	–	–	–	–	1.4277	1.4269	1.4249	1.423
[2], m1 = 0.0703	–	–	–	–	1.428	1.4271	1.4259	1.424
[2], m1 = 0.0938	–	–	–	–	1.4285	1.4274	1.4266	1.425
[2], m1 = 0.1172	–	–	–	–	1.4288	1.4275	1.427	1.4261
[2], m1 = 0.1407	–	–	–	–	1.4289	1.428	1.4273	1.4265
[2], m1 = 0.1641	–	–	–	–	1.4295	1.4285	1.4276	1.4271
[2], m1 = 0.1876	–	–	–	–	1.43	1.4289	1.428	1.4273
[2], m1 = 0.211	–	–	–	–	1.4305	1.4295	1.4282	1.4274
[2], m1 = 0.2345	–	–	–	–	1.431	1.43	1.4288	1.4275
